Read-outs that look alike come from different tables or passages of the source.
Tests used:
[1] = tested on: S. Newport; details: used alone, previous work, cited from earlier work
[2] = tested on: Salmonella Newport; assay: Biofilm formation on food contact surface coupons, direct plating; assay type: cell-based, Salmonella enterica; details: two-minute treatment
Description: A protocol based on direct plating was also evaluated for testing the biofilm formation by Salmonella or L. monocytogenes. Biofilms were formed on three different food contact surface coupons (HDPE, Buna-N rubber, and 316 stainless steel) for up to 3 days in 35 mm mini-petri dishes. Biofilms were formed using a 1:10 diluted TSB solution (10 mL) with either S. enterica or L. monocytogenes inoculum (100 μL). The diluted TSB was changed every 16-18 hours with new 1:10 diluted TSB (10 mL). Coupons were removed for sampling and enumeration of strongly attached bacteria at three different time points (Day 0, 1, and 3). The coupons were rinsed with deionized water five times to remove planktonic cells. Then the coupons were immersed in 10 mL of BPW. The coupons were sonicated for 2 minutes using different settings (Tables 11 and 12) for each organism. After sonication, the solution was serially diluted and plated on Tryptic Soy Agar (TSA). Plates were incubated at 37° C. for 24-48 hours. The colonies were counted and the colony forming units were determined for the various sonication settings, so that the appropriate setting with the most recovery could be determined. […] These settings were used in further experiments to recover the bacterial cells from coupons during sampling and enumeration (by spread plating) of the bacteria in biofilms.
The reduction in bacterial biofilm formation was also tested using a direct plating method. Biofilms were formed on six different food contact surface coupons (HDPE, Buna-N rubber, PC, PVC, and stainless steel 304 and 316) in separate 35 mm mini-petri dishes and evaluated at three different time points (Day 0, 1, and 3). Biofilms were formed using a 1:10 diluted TSB solution (10 mL) with either S. enterica or L. monocytogenes inoculum (100 μL). The coupons were also washed and treated with antimicrobial solutions containing the plant-based emulsifier and the essential oil/plant extracts at various concentrations. The diluted TSB was changed every 16-18 hours with new 1:10 diluted TSB (10 mL). The coupons were rinsed in the antimicrobial solution before adding them to the petri dishes containing the fresh, diluted TSB. After their specific time points, coupons were removed aseptically using sterile forceps from the petri dish. The coupons were rinsed by submerging in 25 mL of sterile deionized H2O and swirled five times to remove planktonic cells. After rinsing, they were placed into a new petri dish immersed in 10 mL of BPW. The coupons were sonicated for 2 minutes on ice using different settings for each organism. After sonication, the sonicated solution was serially diluted using 0.1% peptone water and spread plated on TSA in duplicate. Plates were incubated overnight at 37° C. for 24-48 hours, after which, the colonies were counted, to establish the efficacy of the antimicrobial solutions (Tables 17-25).

Cc1ccc(C(C)C)cc1O [Carvacrol, carvacrol]
reduction of S. Newport on iceberg lettuce ([1]; 0.1%): 1 log CFU/g | reduction of S. Newport on iceberg lettuce ([1]; 0.3%): over 5 log CFU/g | reduction of S. Newport on iceberg lettuce ([1]; 0.5%): over 5 log CFU/g | Survivors of Salmonella Newport on food contact surface ([2]; 0.5% with 0.0001% saponin microemulsion, Day 0, 304 SS): 4.75 Log CFU/mL | Survivors of Salmonella Newport on food contact surface ([2]; 0.5% with 0.0001% saponin microemulsion, Day 0, 316 SS): 4.66 Log CFU/mL | Survivors of Salmonella Newport on food contact surface ([2]; 0.5% with 0.0001% saponin microemulsion, Day 0, Buna N): 4.19 Log CFU/mL | Survivors of Salmonella Newport on food contact surface ([2]; 0.5% with 0.0001% saponin microemulsion, Day 0, HDPE): <1 Log CFU/mL | Survivors of Salmonella Newport on food contact surface ([2]; 0.5% with 0.0001% saponin microemulsion, Day 0, PC): <1 Log CFU/mL | Survivors of Salmonella Newport on food contact surface ([2]; 0.5% with 0.0001% saponin microemulsion, Day 0, PVC): 2.74 Log CFU/mL | Survivors of Salmonella Newport on food contact surface ([2]; 0.5% with 0.0001% saponin microemulsion, Day 1, 304 SS): 4.26 Log CFU/mL | Survivors of Salmonella Newport on food contact surface ([2]; 0.5% with 0.0001% saponin microemulsion, Day 1, 316 SS): 4.42 Log CFU/mL | Survivors of Salmonella Newport on food contact surface ([2]; 0.5% with 0.0001% saponin microemulsion, Day 1, Buna N): 4.65 Log CFU/mL | Survivors of Salmonella Newport on food contact surface ([2]; 0.5% with 0.0001% saponin microemulsion, Day 1, HDPE): <1 Log CFU/mL | Survivors of Salmonella Newport on food contact surface ([2]; 0.5% with 0.0001% saponin microemulsion, Day 1, PC): <1 Log CFU/mL | Survivors of Salmonella Newport on food contact surface ([2]; 0.5% with 0.0001% saponin microemulsion, Day 1, PVC): 4.24 Log CFU/mL | Survivors of Salmonella Newport on food contact surface ([2]; 0.5% with 0.0001% saponin microemulsion, Day 3, 304 SS): <1 Log CFU/mL | Survivors of Salmonella Newport on food contact surface ([2]; 0.5% with 0.0001% saponin microemulsion, Day 3, 316 SS): <1 Log CFU/mL | Survivors of Salmonella Newport on food contact surface ([2]; 0.5% with 0.0001% saponin microemulsion, Day 3, Buna N): <1 Log CFU/mL | Survivors of Salmonella Newport on food contact surface ([2]; 0.5% with 0.0001% saponin microemulsion, Day 3, HDPE): <1 Log CFU/mL | Survivors of Salmonella Newport on food contact surface ([2]; 0.5% with 0.0001% saponin microemulsion, Day 3, PC): <1 Log CFU/mL | Survivors of Salmonella Newport on food contact surface ([2]; 0.5% with 0.0001% saponin microemulsion, Day 3, PVC): <1 Log CFU/mL | Survivors of Salmonella Newport on food contact surface ([2]; 0.7% with 0.0001% saponin microemulsion, Day 0, 304 SS): 4.57 Log CFU/mL | Survivors of Salmonella Newport on food contact surface ([2]; 0.7% with 0.0001% saponin microemulsion, Day 0, 316 SS): 4.24 Log CFU/mL | Survivors of Salmonella Newport on food contact surface ([2]; 0.7% with 0.0001% saponin microemulsion, Day 0, Buna N): 4.44 Log CFU/mL | Survivors of Salmonella Newport on food contact surface ([2]; 0.7% with 0.0001% saponin microemulsion, Day 0, HDPE): 4.24 Log CFU/mL | Survivors of Salmonella Newport on food contact surface ([2]; 0.7% with 0.0001% saponin microemulsion, Day 0, PC): 4.18 Log CFU/mL | Survivors of Salmonella Newport on food contact surface ([2]; 0.7% with 0.0001% saponin microemulsion, Day 0, PVC): 4.63 Log CFU/mL | Survivors of Salmonella Newport on food contact surface ([2]; 0.7% with 0.0001% saponin microemulsion, Day 1, 304 SS): <1 Log CFU/mL | Survivors of Salmonella Newport on food contact surface ([2]; 0.7% with 0.0001% saponin microemulsion, Day 1, 316 SS): <1 Log CFU/mL | Survivors of Salmonella Newport on food contact surface ([2]; 0.7% with 0.0001% saponin microemulsion, Day 1, Buna N): <1 Log CFU/mL | Survivors of Salmonella Newport on food contact surface ([2]; 0.7% with 0.0001% saponin microemulsion, Day 1, HDPE): <1 Log CFU/mL | Survivors of Salmonella Newport on food contact surface ([2]; 0.7% with 0.0001% saponin microemulsion, Day 1, PC): <1 Log CFU/mL | Survivors of Salmonella Newport on food contact surface ([2]; 0.7% with 0.0001% saponin microemulsion, Day 1, PVC): <1 Log CFU/mL | Survivors of Salmonella Newport on food contact surface ([2]; 0.7% with 0.0001% saponin microemulsion, Day 3, 304 SS): <1 Log CFU/mL | Survivors of Salmonella Newport on food contact surface ([2]; 0.7% with 0.0001% saponin microemulsion, Day 3, 316 SS): <1 Log CFU/mL | Survivors of Salmonella Newport on food contact surface ([2]; 0.7% with 0.0001% saponin microemulsion, Day 3, Buna N): <1 Log CFU/mL | Survivors of Salmonella Newport on food contact surface ([2]; 0.7% with 0.0001% saponin microemulsion, Day 3, HDPE): <1 Log CFU/mL | Survivors of Salmonella Newport on food contact surface ([2]; 0.7% with 0.0001% saponin microemulsion, Day 3, PC): <1 Log CFU/mL | Survivors of Salmonella Newport on food contact surface ([2]; 0.7% with 0.0001% saponin microemulsion, Day 3, PVC): <1 Log CFU/mL | Survivors of Salmonella Newport on food contact surface ([2]; 1% with 0.0001% saponin microemulsion, Day 0, 304 SS): <1 Log CFU/mL | Survivors of Salmonella Newport on food contact surface ([2]; 1% with 0.0001% saponin microemulsion, Day 0, 316 SS): <1 Log CFU/mL | Survivors of Salmonella Newport on food contact surface ([2]; 1% with 0.0001% saponin microemulsion, Day 0, Buna N): <1 Log CFU/mL | Survivors of Salmonella Newport on food contact surface ([2]; 1% with 0.0001% saponin microemulsion, Day 0, HDPE): <1 Log CFU/mL | Survivors of Salmonella Newport on food contact surface ([2]; 1% with 0.0001% saponin microemulsion, Day 0, PC): <1 Log CFU/mL | Survivors of Salmonella Newport on food contact surface ([2]; 1% with 0.0001% saponin microemulsion, Day 0, PVC): <1 Log CFU/mL | Survivors of Salmonella Newport on food contact surface ([2]; 1% with 0.0001% saponin microemulsion, Day 1, 304 SS): <1 Log CFU/mL | Survivors of Salmonella Newport on food contact surface ([2]; 1% with 0.0001% saponin microemulsion, Day 1, 316 SS): <1 Log CFU/mL | Survivors of Salmonella Newport on food contact surface ([2]; 1% with 0.0001% saponin microemulsion, Day 1, Buna N): <1 Log CFU/mL | Survivors of Salmonella Newport on food contact surface ([2]; 1% with 0.0001% saponin microemulsion, Day 1, HDPE): <1 Log CFU/mL | Survivors of Salmonella Newport on food contact surface ([2]; 1% with 0.0001% saponin microemulsion, Day 1, PC): <1 Log CFU/mL | Survivors of Salmonella Newport on food contact surface ([2]; 1% with 0.0001% saponin microemulsion, Day 1, PVC): <1 Log CFU/mL | Survivors of Salmonella Newport on food contact surface ([2]; 1% with 0.0001% saponin microemulsion, Day 3, 304 SS): <1 Log CFU/mL | Survivors of Salmonella Newport on food contact surface ([2]; 1% with 0.0001% saponin microemulsion, Day 3, 316 SS): <1 Log CFU/mL | Survivors of Salmonella Newport on food contact surface ([2]; 1% with 0.0001% saponin microemulsion, Day 3, Buna N): <1 Log CFU/mL | Survivors of Salmonella Newport on food contact surface ([2]; 1% with 0.0001% saponin microemulsion, Day 3, HDPE): <1 Log CFU/mL | Survivors of Salmonella Newport on food contact surface ([2]; 1% with 0.0001% saponin microemulsion, Day 3, PC): <1 Log CFU/mL | Survivors of Salmonella Newport on food contact surface ([2]; 1% with 0.0001% saponin microemulsion, Day 3, PVC): <1 Log CFU/mL
